Measurements as given in PMC11533140 (Frontiers in Pharmacology, 2024).
Like-named read-outs stand apart in the source and are kept apart here. Values belong to the molecule of their own block, whether it stands above or below them.

Key:
[1] = target: PI3Kα (Homo sapiens, UniProt P42336); test: in vitro PI3Kα kinase inhibition assay; type: biochemical
Description: (§1) The in vitro inhibition assays of all final compounds against PI3K were performed by Shanghai ChemPartner Co., Ltd. (China). The antiproliferative activities of the compounds against A2780, U87MG, MCF7, and DU145 cell lines were tested by the standard MTT method. CHO cells stably expressing the transcript of hERG were investigated by the automated whole-cell patch clamp technique, using the QPatch system (Sophion). The compound was tested with Salmonella typhimurium strains TA98 and TA100 with the plate incorporation method at seven doses. Apoptosis was evaluated using the One-Step TUNEL Apoptosis Assay Kit (FITC) (cat. no. MA0223; Meilunbio, Dalian, China), according to the manufacturer’s protocol. Male and female SD rats (SLRC Laboratory Animal Inc., Shanghai, China) were used, and the detailed pharmacokinetic procedures are described in Supplementary Material.

[2] = tested on: MCF7 cells; test: MTT antiproliferative assay, MCF7; type: cell-based; details: Homo sapiens
Description: as §1

[3] = tested on: A2780 cells; test: MTT antiproliferative assay, A2780; type: cell-based; details: Homo sapiens
Description: as §1

[4] = tested on: DU145 cells; test: MTT antiproliferative assay, DU145; type: cell-based; details: for IC50: Homo sapiens, DU-145
Description: as §1

[5] = tested on: U87MG cells; test: MTT antiproliferative assay, U87MG; type: cell-based; details: for IC50: Homo sapiens, U-87 MG
Description: as §1

[6] = target: PI3Kδ (Homo sapiens, UniProt O00329); test: in vitro PI3Kδ inhibition assay (isoform selectivity); type: biochemical; details: Table 4
Chain of PI3Kδ (O00329 whole entry, canonical isoform): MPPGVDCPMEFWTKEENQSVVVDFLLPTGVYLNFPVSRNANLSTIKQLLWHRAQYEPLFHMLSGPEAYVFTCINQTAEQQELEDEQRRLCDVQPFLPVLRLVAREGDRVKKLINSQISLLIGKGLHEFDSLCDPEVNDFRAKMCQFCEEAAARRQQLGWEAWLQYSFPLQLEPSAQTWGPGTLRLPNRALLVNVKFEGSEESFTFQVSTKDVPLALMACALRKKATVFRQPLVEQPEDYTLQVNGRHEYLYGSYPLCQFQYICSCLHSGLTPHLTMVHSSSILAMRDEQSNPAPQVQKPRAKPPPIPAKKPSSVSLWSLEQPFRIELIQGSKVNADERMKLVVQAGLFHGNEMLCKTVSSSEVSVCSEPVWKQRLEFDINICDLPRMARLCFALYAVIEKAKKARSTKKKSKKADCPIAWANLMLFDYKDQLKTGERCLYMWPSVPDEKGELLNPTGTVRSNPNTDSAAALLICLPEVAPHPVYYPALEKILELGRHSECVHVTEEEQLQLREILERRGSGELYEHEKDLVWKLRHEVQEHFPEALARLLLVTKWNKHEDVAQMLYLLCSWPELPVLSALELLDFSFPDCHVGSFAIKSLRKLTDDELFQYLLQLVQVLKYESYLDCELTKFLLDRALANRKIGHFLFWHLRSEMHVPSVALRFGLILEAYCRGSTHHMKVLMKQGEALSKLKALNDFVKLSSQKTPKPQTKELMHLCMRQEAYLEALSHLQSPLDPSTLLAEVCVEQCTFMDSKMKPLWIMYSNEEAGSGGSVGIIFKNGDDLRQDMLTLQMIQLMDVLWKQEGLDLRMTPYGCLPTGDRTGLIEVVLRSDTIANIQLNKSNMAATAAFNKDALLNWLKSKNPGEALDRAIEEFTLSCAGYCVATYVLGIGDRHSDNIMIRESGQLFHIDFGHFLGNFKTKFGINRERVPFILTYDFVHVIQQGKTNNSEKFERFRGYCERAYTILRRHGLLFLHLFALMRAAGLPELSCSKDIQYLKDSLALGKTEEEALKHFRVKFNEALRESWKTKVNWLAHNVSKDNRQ
Chain of PI3Kδ (P27986 whole entry partner, canonical isoform): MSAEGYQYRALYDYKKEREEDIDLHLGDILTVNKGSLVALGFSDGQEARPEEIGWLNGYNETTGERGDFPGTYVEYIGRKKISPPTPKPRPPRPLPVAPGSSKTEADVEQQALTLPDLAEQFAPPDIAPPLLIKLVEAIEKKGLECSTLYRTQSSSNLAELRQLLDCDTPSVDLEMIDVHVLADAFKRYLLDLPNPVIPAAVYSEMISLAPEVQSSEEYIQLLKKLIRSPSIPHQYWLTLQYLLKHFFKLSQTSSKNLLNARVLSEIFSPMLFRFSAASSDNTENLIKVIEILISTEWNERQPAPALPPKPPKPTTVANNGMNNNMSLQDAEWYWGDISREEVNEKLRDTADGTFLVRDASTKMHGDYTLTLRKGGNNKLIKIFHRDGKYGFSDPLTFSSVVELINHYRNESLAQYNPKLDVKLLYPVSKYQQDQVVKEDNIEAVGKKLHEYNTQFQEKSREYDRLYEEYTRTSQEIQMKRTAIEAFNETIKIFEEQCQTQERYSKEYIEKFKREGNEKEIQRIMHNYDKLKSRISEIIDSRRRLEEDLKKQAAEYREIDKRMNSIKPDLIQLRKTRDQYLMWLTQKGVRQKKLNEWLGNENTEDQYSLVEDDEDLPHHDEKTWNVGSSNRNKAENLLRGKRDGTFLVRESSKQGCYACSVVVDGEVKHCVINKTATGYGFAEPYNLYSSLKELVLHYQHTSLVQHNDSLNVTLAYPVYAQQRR
Description: as §1

[7] = target: PI3Kγ (Homo sapiens, UniProt P48736); test: in vitro PI3Kγ inhibition assay (isoform selectivity); type: biochemical; details: Table 4
Chain of PI3Kγ (P48736 whole entry, canonical isoform): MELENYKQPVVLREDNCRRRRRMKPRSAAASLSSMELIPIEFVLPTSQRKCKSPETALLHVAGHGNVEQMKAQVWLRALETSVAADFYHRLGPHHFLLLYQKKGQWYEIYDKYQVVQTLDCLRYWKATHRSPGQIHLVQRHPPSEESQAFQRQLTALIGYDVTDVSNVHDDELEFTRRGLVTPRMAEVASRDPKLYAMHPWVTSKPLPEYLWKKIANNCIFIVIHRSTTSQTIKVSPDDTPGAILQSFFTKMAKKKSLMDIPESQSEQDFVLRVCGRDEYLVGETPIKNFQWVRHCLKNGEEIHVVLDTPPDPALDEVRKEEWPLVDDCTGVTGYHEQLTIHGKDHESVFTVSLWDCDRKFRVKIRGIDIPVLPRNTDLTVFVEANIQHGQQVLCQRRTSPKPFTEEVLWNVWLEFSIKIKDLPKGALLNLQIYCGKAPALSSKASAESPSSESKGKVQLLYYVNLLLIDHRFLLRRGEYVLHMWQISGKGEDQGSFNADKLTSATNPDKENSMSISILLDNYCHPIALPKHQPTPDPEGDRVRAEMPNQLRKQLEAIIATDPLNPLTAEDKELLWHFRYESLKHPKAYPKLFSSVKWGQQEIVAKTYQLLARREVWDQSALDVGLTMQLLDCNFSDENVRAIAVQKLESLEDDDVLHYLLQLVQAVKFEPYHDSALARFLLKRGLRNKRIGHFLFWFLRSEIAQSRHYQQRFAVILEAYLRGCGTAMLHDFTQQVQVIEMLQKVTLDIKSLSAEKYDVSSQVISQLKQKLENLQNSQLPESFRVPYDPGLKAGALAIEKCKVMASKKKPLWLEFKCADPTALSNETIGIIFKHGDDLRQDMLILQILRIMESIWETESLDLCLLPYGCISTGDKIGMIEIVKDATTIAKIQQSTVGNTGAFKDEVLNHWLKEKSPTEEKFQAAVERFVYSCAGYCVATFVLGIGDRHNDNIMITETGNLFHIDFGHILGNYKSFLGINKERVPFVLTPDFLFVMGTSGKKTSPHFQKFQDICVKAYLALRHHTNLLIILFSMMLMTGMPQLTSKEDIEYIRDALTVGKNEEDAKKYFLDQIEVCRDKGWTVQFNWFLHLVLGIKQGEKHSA
Description: as §1

[8] = target: mTOR (Homo sapiens, UniProt P42345); test: in vitro mTOR inhibition assay (selectivity); type: biochemical; details: Table 4
Description: as §1

[9] = target: PI3Kβ (Homo sapiens, UniProt P42338); test: in vitro PI3Kβ inhibition assay (isoform selectivity); type: biochemical; details: Table 4
Chain of PI3Kβ (P42338 whole entry, canonical isoform): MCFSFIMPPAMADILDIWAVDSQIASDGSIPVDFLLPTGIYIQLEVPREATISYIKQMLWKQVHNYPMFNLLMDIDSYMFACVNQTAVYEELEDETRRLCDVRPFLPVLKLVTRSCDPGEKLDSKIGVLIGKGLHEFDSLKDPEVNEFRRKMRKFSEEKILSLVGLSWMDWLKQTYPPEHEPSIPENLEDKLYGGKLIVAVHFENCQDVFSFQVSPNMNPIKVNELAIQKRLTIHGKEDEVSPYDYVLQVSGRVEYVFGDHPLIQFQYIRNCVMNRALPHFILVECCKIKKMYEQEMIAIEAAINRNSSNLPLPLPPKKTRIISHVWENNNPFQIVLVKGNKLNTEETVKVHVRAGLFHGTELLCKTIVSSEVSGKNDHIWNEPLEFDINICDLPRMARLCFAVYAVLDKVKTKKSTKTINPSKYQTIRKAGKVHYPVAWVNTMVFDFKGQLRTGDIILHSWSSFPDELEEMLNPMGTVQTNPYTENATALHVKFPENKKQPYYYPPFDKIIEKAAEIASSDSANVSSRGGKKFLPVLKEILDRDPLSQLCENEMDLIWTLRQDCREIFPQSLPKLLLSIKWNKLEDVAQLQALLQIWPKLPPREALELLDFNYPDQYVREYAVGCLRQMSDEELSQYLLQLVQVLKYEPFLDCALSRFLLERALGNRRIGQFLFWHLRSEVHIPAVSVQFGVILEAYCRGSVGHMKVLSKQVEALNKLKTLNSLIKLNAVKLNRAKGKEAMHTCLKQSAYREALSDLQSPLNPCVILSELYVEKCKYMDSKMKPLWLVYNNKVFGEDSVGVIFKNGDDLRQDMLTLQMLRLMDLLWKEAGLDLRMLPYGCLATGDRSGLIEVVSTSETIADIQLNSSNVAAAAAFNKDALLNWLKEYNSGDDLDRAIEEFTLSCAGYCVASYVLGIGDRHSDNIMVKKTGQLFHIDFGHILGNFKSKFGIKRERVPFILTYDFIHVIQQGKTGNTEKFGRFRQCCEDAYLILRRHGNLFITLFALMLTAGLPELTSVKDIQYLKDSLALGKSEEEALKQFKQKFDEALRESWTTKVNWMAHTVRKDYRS
Chain of PI3Kβ (P27986 whole entry partner, canonical isoform): as the sequence (P27986 whole entry partner, canonical isoform) above
Description: as §1

[10] = liver microsome stability, human; type: in vitro ADME; details: liver microsomes
Description: (§2) The metabolic stability of 17p was evaluated in liver microsome assays, which measure clearance and half-life in rats and humans.

[11] = target: T1, hERG potassium currents (Homo sapiens, UniProt Q12809); test: hERG automated whole-cell patch clamp (QPatch), CHO cells; type: cell-based; details: in words
T1 construct: expressed in transfected cells
Description: as §1
(§3) To evaluate cardiotoxicity, it is necessary to test inhibitory activity on hERG potassium currents.

[12] = target: T2, hERG (Homo sapiens, UniProt Q12809); test: as above; type: cell-based; details: human, CHO cells stably expressing hERG; CHO cells expressing hERG, patch clamp; read-out: IC50 on hERG potassium currents
T2 construct: expressed in transfected cells
Description: as §1, §3

[13] = tested on: Salmonella typhimurium TA100; test: Ames test, plate incorporation, TA100; type: cell-based
Description: as §1
(§4) S. typhimurium TA98 and TA100 were selected to conduct the Ames experiment to investigate the genotoxicity risk of compound 17p.

[14] = tested on: Salmonella typhimurium TA98; test: Ames test, plate incorporation, TA98; type: cell-based
Description: as §1, §4

[15] = tested on: HL-7702 cells; test: inhibitory activity on normal cells, HL-7702; type: cell-based; details: Homo sapiens, L02
Text: (§5) Several clinical PI3K candidates were severely intolerable to patients due to fatal hepatotoxicity and, thus, failed in clinical trials. Thus, evaluating the selectivity of compounds toward normal cells might reduce the risk of clinical failure of new compounds.

[16] = tested on: MRC-5 cells; test: inhibitory activity on normal cells, MRC-5; type: cell-based; details: Homo sapiens, MRC5
Text: as §5

[17] = tested on: A2780 cells; test: TUNEL apoptosis assay in A2780; type: cell-based; details: 24 h treatment
Description: as §1
The ED50 value of 17p cytotoxicity was determined using a multiple logistic regression model.

[18] = pharmacokinetics in SD rats; type: in vivo; parameters: area under the curve: unit not given here; details: for AUC(0-t) / Cmax / half-life / Tmax / bioavailability: rat, plasma; for bioavailability: read-out: F (oral bioavailability)
Description: as §1
According to the good in vitro properties of compound 17p, we performed pharmacokinetic analyses in male and female SD rats at doses of 10 (po) and 2.5 mg/kg (iv), respectively (Table 9). The pharmacokinetic properties in male and female SD rats were […]. […] Thus, compound 17p had favorable pharmacokinetic properties.

[19] = liver microsome stability, rat; type: in vitro ADME; details: liver microsomes
Description: as §2

[20] = Figure 5 activity bins, read-out: IC50 range in SAR figure (PI3Kα)
[21] = mean of three independent experiments, read-out: IC50 against PI3Kα
[22] = Table 4, read-out: IC50 PI3Kα (isoform selectivity study)
[23] = read-out: T1/2 liver microsomes

Chain of PI3Kα (P42336 whole entry): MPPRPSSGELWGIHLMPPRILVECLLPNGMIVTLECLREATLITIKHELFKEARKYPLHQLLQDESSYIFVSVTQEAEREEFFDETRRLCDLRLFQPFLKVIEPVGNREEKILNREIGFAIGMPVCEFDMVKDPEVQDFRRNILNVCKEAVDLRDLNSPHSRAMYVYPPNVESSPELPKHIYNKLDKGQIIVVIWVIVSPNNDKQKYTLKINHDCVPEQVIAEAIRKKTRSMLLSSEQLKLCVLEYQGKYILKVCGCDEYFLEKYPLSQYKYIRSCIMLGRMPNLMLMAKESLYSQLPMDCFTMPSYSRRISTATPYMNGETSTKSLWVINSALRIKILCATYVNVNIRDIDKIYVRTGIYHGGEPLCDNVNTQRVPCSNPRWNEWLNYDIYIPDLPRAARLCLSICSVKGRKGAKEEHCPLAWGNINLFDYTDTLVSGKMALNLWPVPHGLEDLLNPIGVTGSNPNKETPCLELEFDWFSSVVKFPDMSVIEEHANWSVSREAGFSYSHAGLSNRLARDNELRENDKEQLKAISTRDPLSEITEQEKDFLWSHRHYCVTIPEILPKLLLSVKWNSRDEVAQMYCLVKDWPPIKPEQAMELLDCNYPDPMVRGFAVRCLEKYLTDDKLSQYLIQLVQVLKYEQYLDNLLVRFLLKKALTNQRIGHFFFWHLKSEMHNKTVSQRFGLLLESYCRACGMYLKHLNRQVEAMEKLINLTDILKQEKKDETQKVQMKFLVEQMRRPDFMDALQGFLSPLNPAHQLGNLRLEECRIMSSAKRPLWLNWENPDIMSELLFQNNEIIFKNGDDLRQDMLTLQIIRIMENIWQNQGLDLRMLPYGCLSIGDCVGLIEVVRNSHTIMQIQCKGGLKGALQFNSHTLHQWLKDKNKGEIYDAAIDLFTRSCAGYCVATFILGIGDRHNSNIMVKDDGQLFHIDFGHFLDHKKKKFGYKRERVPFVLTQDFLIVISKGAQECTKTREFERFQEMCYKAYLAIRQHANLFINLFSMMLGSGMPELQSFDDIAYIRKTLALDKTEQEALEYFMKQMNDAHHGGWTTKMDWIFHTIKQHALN
Chain of PI3Kα (P27986 whole entry partner): as the sequence (P27986 whole entry partner, canonical isoform) above

Structure (SMILES): Cc1cc(N)ncc1-c1nc(N2CCOCC2)nc(N2CCOCC2)c1C#N [Compound 17l]
- IC50 [1, 20]: 0.4 to 0.8 µM
- IC50 [1, 21]: 0.443 ± 0.0397 µM

Structure (SMILES): N#Cc1c(-c2cnc(N)cc2C(F)(F)F)nc(N2CCOCC2)nc1N1CCOCC1 [Compound 17m]
- IC50 [2]: 1.07 ± 0.09 µM
- IC50 [3]: 2.72 ± 0.19 µM
- IC50 DU145 [4]: no inhibitory effects
- IC50 [4]: 12.4 ± 1.47 µM
- IC50 U87MG [5]: no inhibitory effects
- IC50 [5]: 66.1 ± 9.94 µM
- IC50 [1, 20]: 0.03 to 0.3 µM
- IC50 [1, 21]: 0.104 ± 0.0125 µM

Structure (SMILES): N#Cc1c(-c2cnc(N)nc2C(F)(F)F)nc(N2CCOCC2)nc1N1CCOCC1 [Compound 17p]
- microsomal CLint ([10]; read-out: CL liver microsomes): 10.8 µL/min/mg
- half-life [10, 23]: 2.13 h
- IC50 [2]: 1.59 ± 0.08 µM
- inhibition of hERG potassium currents [11]: no obvious inhibition
- IC50 [12]: 0.39 ± 0.03 µM
- IC50 [6]: 0.0154 ± 0.0019 µM
- IC50 [7]: 0.286 ± 0.0396 µM
- IC50 [8]: 1.42 ± 0.184 µM
- Number of bacterial colony revertant mutations (mean ± SD) TA100 ([13]; 3 μg/dish): 88 ± 7
- Number of bacterial colony revertant mutations (mean ± SD) TA100 ([13]; 10 μg/dish): 92 ± 3
- Number of bacterial colony revertant mutations (mean ± SD) TA100 ([13]; 30 μg/dish): 86 ± 4
- Number of bacterial colony revertant mutations (mean ± SD) TA100 ([13]; 100 μg/dish): 91 ± 6
- Number of bacterial colony revertant mutations (mean ± SD) TA100 ([13]; 300 μg/dish): 90 ± 3
- Number of bacterial colony revertant mutations (mean ± SD) TA100 ([13]; 1,000 μg/dish): 91 ± 1
- Number of bacterial colony revertant mutations (mean ± SD) TA100 ([13]; 5,000 μg/dish): 87 ± 1
- mutagenic effect on TA100 ([13]; in words): no mutagenic effect
- IC50 [3]: 0.85 ± 0.11 µM
- Number of bacterial colony revertant mutations (mean ± SD) TA98 ([14]; 3 μg/dish): 38 ± 7
- Number of bacterial colony revertant mutations (mean ± SD) TA98 ([14]; 10 μg/dish): 41 ± 4
- Number of bacterial colony revertant mutations (mean ± SD) TA98 ([14]; 30 μg/dish): 37 ± 11
- Number of bacterial colony revertant mutations (mean ± SD) TA98 ([14]; 100 μg/dish): 43 ± 4
- Number of bacterial colony revertant mutations (mean ± SD) TA98 ([14]; 300 μg/dish): 29 ± 4
- Number of bacterial colony revertant mutations (mean ± SD) TA98 ([14]; 1,000 μg/dish): 44 ± 5
- Number of bacterial colony revertant mutations (mean ± SD) TA98 ([14]; 5,000 μg/dish): 40 ± 4
- mutagenic effect on TA98 ([14]; in words): no mutagenic effect
- IC50 [4]: 8.77 ± 1.16 µM
- IC50 [5]: 4.72 ± 0.37 µM
- IC50 [1, 20]: 0.03 to 0.3 µM
- IC50 [1, 22]: 0.0303 ± 0.0035 µM
- IC50 [1, 21]: 0.0324 ± 0.0041 µM
- IC50 [15]: 4.62 ± 0.52 µM
- IC50 [16]: 8.47 ± 0.77 µM
- cytotoxicity ED50 (TUNEL, logistic regression) [17]: 5.345 µM
- IC50 [9]: 0.125 ± 0.0101 µM
- Cl_F_pred ([18]; female SD rats, 2.5 mg/kg iv): 0.09 L/h/kg
- Cl_F_pred (plasma clearance) ([18]; female SD rats, 10 mg/kg po): 0.2 L/h/kg
- area under the curve ([18]; female SD rats, 10 mg/kg po): 50,618.9
- Cl_F_pred ([18]; male SD rats, 2.5 mg/kg iv): 0.98 L/h/kg
- Cl_F_pred ([18]; male SD rats, 10 mg/kg po): 6.54 L/h/kg
- AUC(0-t) ([18]; female SD rats, 2.5 mg/kg iv): 27.4 µg·h/mL
- Cmax ([18]; female SD rats, 2.5 mg/kg iv): 4.28 µg/mL
- half-life ([18]; female SD rats, 2.5 mg/kg iv): 2.79 h
- AUC(0-t) ([18]; female SD rats, 10 mg/kg po): 50.6 µg·h/mL
- Cmax ([18]; female SD rats, 10 mg/kg po): 4.86 µg/mL
- Tmax ([18]; female SD rats, 10 mg/kg po): 3.33 h
- half-life ([18]; female SD rats, 10 mg/kg po): 2.03 h
- bioavailability ([18]; female SD rats, 10 mg/kg po): 46.2%
- AUC(0-t) ([18]; male SD rats, 2.5 mg/kg iv): 2.69 µg·h/mL
- Cmax ([18]; male SD rats, 2.5 mg/kg iv): 3.12 µg/mL
- half-life ([18]; male SD rats, 2.5 mg/kg iv): 0.68 h
- AUC(0-t) ([18]; male SD rats, 10 mg/kg po): 1.86 µg·h/mL
- Cmax ([18]; male SD rats, 10 mg/kg po): 0.538 µg/mL
- Tmax ([18]; male SD rats, 10 mg/kg po): 0.67 h
- half-life ([18]; male SD rats, 10 mg/kg po): 3.19 h
- bioavailability ([18]; male SD rats, 10 mg/kg po): 17.3%
- microsomal CLint ([19]; read-out: CL liver microsomes): 36 µL/min/mg
- half-life [19, 23]: 0.642 h

Results, then the molecule that gave them:

- IC50 [1, 20]: 0.03 to 0.3 µM
- IC50 [1, 21]: 0.159 ± 0.0144 µM
Structure (SMILES): N#Cc1c(-c2ccc(N)nc2)nc(N2CCOCC2)nc1N1CCOCC1 [Compound 17k]

- IC50 [1, 20]: 0.4 to 0.8 µM
- IC50 [1, 21]: 0.604 ± 0.103 µM
Structure (SMILES): N#Cc1c(-c2cncnc2)nc(N2CCOCC2)nc1N1CCOCC1 [Compound 17n]

- IC50 [2]: 1.16 ± 0.12 µM
- IC50 [6]: 0.204 ± 0.0222 µM
- IC50 [7]: 0.176 ± 0.0159 µM
- IC50 [8]: 0.204 ± 0.0301 µM
- IC50 [3]: 1.13 ± 0.1 µM
- IC50 [4]: 5.05 ± 0.47 µM
- IC50 [5]: 4.19 ± 0.53 µM
- IC50 [1, 20]: 0.03 to 0.3 µM
- IC50 [1, 22]: 0.0347 ± 0.0046 µM
- IC50 [1, 21]: 0.0347 ± 0.0021 µM
- IC50 [9]: 0.176 ± 0.0263 µM
Structure (SMILES): CNc1ncc(-c2nc(N3CCOCC3)nc(N3CCOCC3)c2C#N)cn1 [Compound 17o]
